# Experimental data published in ChEMBL document CHEMBL5154709, “Tetrazole derivatives bearing benzodiazepine moiety-synthesis and action mode against virulence of Candida albicans” (Eur J Med Chem, 2022).
# Legend:
# Candida albicans [1] = experiment: Antifungal activity against Candida albicans SC5314 assessed as inhibition of fungal growth at 16 ug/ml incubated for 18 hrs by M27-A3 based microdilution method relative to control; format: functional
# Candida albicans [2] = experiment: Antifungal activity against Candida albicans SC5314 assessed as inhibition of fungal growth at 0.125 ug/ml incubated for 18 hrs by M27-A3 based microdilution method relative to control; format: functional
# Candida albicans [3] = experiment: Antifungal activity against Candida albicans SC5314 assessed as inhibition of fungal growth at 0.125 ug/ml incubated for 48 hrs by M27-A3 based microdilution method relative to control; format: functional
# Candida albicans [4] = experiment: Antifungal activity against Candida albicans SC5314 assessed as inhibition of fungal growth at 1 ug/ml incubated for 48 hrs by M27-A3 based microdilution method relative to control; format: functional
# Candida albicans [5] = experiment: Antifungal activity against Candida albicans SC5314 assessed as inhibition of fungal growth at 16 ug/ml incubated for 48 hrs by M27-A3 based microdilution method relative to control; format: functional
# Candida albicans [6] = experiment: Antifungal activity against Candida albicans SC5314 assessed as inhibition of fungal growth at 0.0625 ug/ml incubated for 18 hrs by M27-A3 based microdilution method relative to control; format: functional
# Candida albicans [7] = experiment: Antifungal activity against Candida albicans SC5314 assessed as inhibition of fungal growth at 8 ug/ml incubated for 48 hrs by M27-A3 based microdilution method relative to control; format: functional
# Candida albicans [8] = experiment: Antifungal activity against Candida albicans SC5314 assessed as inhibition of fungal growth at 0.25 ug/ml incubated for 18 hrs by M27-A3 based microdilution method relative to control; format: functional
# Candida albicans [9] = experiment: Antifungal activity against Candida albicans SC5314 assessed as inhibition of fungal growth at 0.03125 ug/ml incubated for 18 hrs by M27-A3 based microdilution method relative to control; format: functional
# Candida albicans [10] = experiment: Antifungal activity against Candida albicans SC5314 assessed as inhibition of fungal growth at 0.03125 ug/ml incubated for 48 hrs by M27-A3 based microdilution method relative to control; format: functional
# Candida albicans [11] = experiment: Antifungal activity against Candida albicans SC5314 assessed as inhibition of fungal growth at 2 ug/ml incubated for 48 hrs by M27-A3 based microdilution method relative to control; format: functional
# Candida albicans [12] = experiment: Antifungal activity against Candida albicans SC5314 assessed as inhibition of fungal growth at 4 ug/ml incubated for 18 hrs by M27-A3 based microdilution method relative to control; format: functional
# Candida albicans [13] = experiment: Antifungal activity against Candida albicans SC5314 assessed as inhibition of fungal growth at 0.5 ug/ml incubated for 48 hrs by M27-A3 based microdilution method relative to control; format: functional
# Candida albicans [14] = experiment: Antifungal activity against Candida albicans SC5314 assessed as inhibition of fungal growth at 0.5 ug/ml incubated for 18 hrs by M27-A3 based microdilution method relative to control; format: functional
# Candida albicans [15] = experiment: Antifungal activity against Candida albicans SC5314 assessed as inhibition of fungal growth at 2 ug/ml incubated for 18 hrs by M27-A3 based microdilution method relative to control; format: functional
# Candida albicans [16] = experiment: Antifungal activity against Candida albicans SC5314 assessed as inhibition of fungal growth at 4 ug/ml incubated for 48 hrs by M27-A3 based microdilution method relative to control; format: functional
# Candida albicans [17] = experiment: Antifungal activity against Candida albicans SC5314 assessed as inhibition of fungal growth at 0.0625 ug/ml incubated for 48 hrs by M27-A3 based microdilution method relative to control; format: functional
# Candida albicans [18] = experiment: Antifungal activity against Candida albicans SC5314 assessed as inhibition of fungal growth at 8 ug/ml incubated for 18 hrs by M27-A3 based microdilution method relative to control; format: functional
# Candida albicans [19] = experiment: Antifungal activity against Candida albicans SC5314 assessed as inhibition of fungal growth at 1 ug/ml incubated for 18 hrs by M27-A3 based microdilution method relative to control; format: functional
# Candida albicans [20] = experiment: Antifungal activity against Candida albicans SC5314 assessed as inhibition of fungal growth at 0.25 ug/ml incubated for 48 hrs by M27-A3 based microdilution method relative to control; format: functional
# [21] = Toxicity in Galleria mellonella larvae assessed as melanization of larvae at 0.05 ug/ml measured every 24 hrs upto 5 days relative to control; conditions: 120 h, at 0.05 µg/mL, time < 5 day
# [22] = Toxicity in Galleria mellonella larvae assessed as melanization of larvae at 0.23 ug/ml measured every 24 hrs upto 5 days relative to control; conditions: 120 h, at 0.23 µg/mL, time < 5 day
# Candida albicans [23] = experiment: Antifungal activity against Candida albicans assessed as inhibition of fungal growth measured after 48 hrs in presence of exogenous ergosterol by M27-A3 based broth microdilution; format: functional
# Candida albicans [24] = experiment: Antifungal activity against Candida albicans assessed as inhibition of fungal growth measured after 48 hrs by M27-A3 based broth microdilution; format: functional
Compound,inhibition at 16 µg/mL (Candida albicans [1]) [%],inhibition at 0.125 µg/mL (Candida albicans [2]) [%],inhibition at 0.125 µg/mL (Candida albicans [3]) [%],inhibition at 1 µg/mL (Candida albicans [4]) [%],inhibition at 16 µg/mL (Candida albicans [5]) [%],inhibition at 0.0625 µg/mL (Candida albicans [6]) [%],inhibition at 8 µg/mL (Candida albicans [7]) [%],inhibition at 0.25 µg/mL (Candida albicans [8]) [%],inhibition at 0.03125 µg/mL (Candida albicans [9]) [%],inhibition at 0.03125 µg/mL (Candida albicans [10]) [%],inhibition at 2 µg/mL (Candida albicans [11]) [%],inhibition at 4 µg/mL (Candida albicans [12]) [%],inhibition at 0.5 µg/mL (Candida albicans [13]) [%],inhibition at 0.5 µg/mL (Candida albicans [14]) [%],inhibition at 2 µg/mL (Candida albicans [15]) [%],inhibition at 4 µg/mL (Candida albicans [16]) [%],inhibition at 0.0625 µg/mL (Candida albicans [17]) [%],inhibition at 8 µg/mL (Candida albicans [18]) [%],inhibition at 1 µg/mL (Candida albicans [19]) [%],inhibition at 0.25 µg/mL (Candida albicans [20]) [%],other results
COc1ccc(-n2nnnc2SCCCCl)cc1,99.9,99.9,99.9,99.8,99.8,99.9,99.8,100,99.8,99.7,99.8,99.8,99.7,99.9,100,99.8,99.8,99.8,99.9,99.9,–
ClCCCSc1nnnn1-c1ccccc1,98.7,98.6,98.8,98.6,98.9,98.6,98.8,98.8,98.8,98.9,98.6,98.8,98.4,98.3,98.5,98.9,98.8,98.7,98.5,98.9,–
Cc1ccc(-c2nnn(CCCN3C(=O)CN=C(c4ccccc4Br)c4cc(F)ccc43)n2)cc1,100,98.5,97.2,95,95.4,99.2,97.6,97.8,100,100,96.4,94.7,95.8,92.3,98.1,95.4,96.5,100,93.8,98.2,–
O=C1CN=C(c2ccccc2Br)c2cc(F)ccc2N1,98.9,99.1,99.1,99.2,99.1,98.7,99.1,98.9,99.1,99.1,99.1,99.2,99.2,99.2,99,99.2,98.7,99.3,99,99.1,–
C[C@@H]1[C@H](O)[C@@H](C)/C=C/C=C/C=C/C=C/C=C/C=C/C=C/[C@H](O[C@@H]2O[C@H](C)[C@@H](O)[C@H](N)[C@@H]2O)C[C@@H]2O[C@](O)(C[C@@H](O)C[C@@H](O)[C@H](O)CC[C@@H](O)C[C@@H](O)CC(=O)O[C@H]1C)C[C@H](O)[C@H]2C(=O)O [AMPHOTERICIN B],100,100,100,100,100,100,100,100,100,100,100,100,100,100,100,100,100,100,100,100,Activity [21]: 10%
O=C1CN=C(c2ccccc2Br)c2cc(F)ccc2N1CCCn1nnc(-c2ccccc2)n1,98.5,99.8,98.4,98.9,98.4,99.4,98.5,99.8,100,100,98.4,99.6,99.3,99.5,99.6,98.9,98.6,98.4,99.4,99,–
COc1ccc(-n2nnnc2SCCCN2C(=O)CN=C(c3ccccc3Br)c3cc(F)ccc32)cc1,98.1,98.8,98.9,98.9,98.5,98.7,98.7,98.5,98.8,98.8,98.8,98.8,98.8,98.7,98.7,98.8,98.8,98.6,98.8,98.6,–
O=C1CN=C(c2ccccc2Br)c2cc(F)ccc2N1CCCSc1nnnn1-c1ccccc1,99.8,99.9,99.8,99.7,99.8,99.7,99.8,99.8,100,99.9,99.7,99.9,99.8,99.9,99.8,99.8,99.7,99.9,99.8,99.7,–
CCC(C)n1ncn(-c2ccc(N3CCN(c4ccc(OCC5COC(Cn6cncn6)(c6ccc(Cl)cc6Cl)O5)cc4)CC3)cc2)c1=O (centres undefined) [ITRACONAZOLE],–,–,–,–,–,–,–,–,–,–,–,–,–,–,–,–,–,–,–,–,Activity [22]: 13%; MIC (Candida albicans [23]): 0.5 µg/mL; MIC (Candida albicans [24]): 0.32 µg/mL
